# Results published in patent US20040010116A1, “Minicell display and products therefrom” (Children's Medical Center Corp., priority 2002, published 2004).
# Where no end group is shown, it is not given here.
# Key:
# [1] = test system: cell/collagen interaction; experiment: Cell/collagen interaction; format: cell-based
# Text: (§1) Several screening methods were utilized. Most of the methods follow a similar protocol outlined below.
# (§2) A tertiary library may be constructed from a third round of screening and those peptides selected may be used in functional screening assays to further isolate peptides of specific activity.
# [2] = test system: cell; experiment: Cell entry of peptides; format: cell-based
# Text: as §1, §2
# [3] = target: T1, alpha4 integrin (Homo sapiens, UniProt P13612); experiment: alpha4 integrin binding
# T1 sequence (P13612 34-1032): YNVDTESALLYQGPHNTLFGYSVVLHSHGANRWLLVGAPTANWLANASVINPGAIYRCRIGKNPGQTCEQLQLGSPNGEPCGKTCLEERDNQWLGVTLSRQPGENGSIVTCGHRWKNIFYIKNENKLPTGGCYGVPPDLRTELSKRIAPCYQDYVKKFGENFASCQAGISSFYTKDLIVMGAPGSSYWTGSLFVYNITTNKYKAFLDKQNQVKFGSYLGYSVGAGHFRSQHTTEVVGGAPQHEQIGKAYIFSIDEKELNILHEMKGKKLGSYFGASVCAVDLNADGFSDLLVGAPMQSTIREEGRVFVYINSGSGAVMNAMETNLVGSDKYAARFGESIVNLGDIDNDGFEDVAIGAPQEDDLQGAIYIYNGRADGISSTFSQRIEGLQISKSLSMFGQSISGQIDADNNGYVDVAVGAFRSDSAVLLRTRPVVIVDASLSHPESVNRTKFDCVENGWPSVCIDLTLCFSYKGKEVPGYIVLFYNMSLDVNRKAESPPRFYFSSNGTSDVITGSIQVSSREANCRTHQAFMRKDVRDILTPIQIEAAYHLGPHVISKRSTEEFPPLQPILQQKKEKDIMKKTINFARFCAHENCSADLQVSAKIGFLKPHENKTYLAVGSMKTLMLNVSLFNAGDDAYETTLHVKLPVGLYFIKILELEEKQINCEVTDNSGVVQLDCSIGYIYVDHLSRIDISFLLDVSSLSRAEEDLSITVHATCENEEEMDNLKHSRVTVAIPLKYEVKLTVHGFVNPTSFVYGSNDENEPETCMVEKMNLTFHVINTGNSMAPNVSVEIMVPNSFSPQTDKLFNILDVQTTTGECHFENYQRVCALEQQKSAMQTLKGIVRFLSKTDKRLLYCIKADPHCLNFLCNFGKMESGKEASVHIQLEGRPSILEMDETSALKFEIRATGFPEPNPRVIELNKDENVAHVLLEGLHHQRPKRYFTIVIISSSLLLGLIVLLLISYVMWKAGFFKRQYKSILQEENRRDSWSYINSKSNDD
# Text: as §1, §2
# [4] = test system: fibroblast; experiment: Fibroblast attachment; format: cell-based
# Text: as §1, §2
# [5] = test system: collagenase; experiment: Collagenase induction; format: cell-based
# Text: as §1, §2
# [6] = test system: Endothelial cell; experiment: Endothelial cell attachment; format: cell-based
# Text: as §1, §2
# [7] = test system: melanoma cell; experiment: Melanoma cell attachment; format: cell-based
# Text: as §1, §2
# [8] = test system: eosinophils; experiment: Activation of apoptosis in eosinophils; format: cell-based; details: versus control
# Text: SEQ ID NO: 56 (Acetylated-GRGENPS) activates apoptosis in eosinophils. […] Fibronectin in combination with SEQ ID NO: 56 further increased the percentage of apoptotic cells by roughly 70%.
# [9] = Heparin binding
# Text: as §1, §2
# [10] = target: CD44 (Homo sapiens, UniProt P16070); experiment: CD44 interaction with GAG; format: binding
# Text: as §1, §2
# [11] = test system: tumor cells; experiment: Homotypic aggregation of tumor cells; format: cell-based
# Text: as §1, §2
# [12] = Induction of apoptosis and cell death; format: cell-based
# [13] = test system: integrin signaling, CD44 signaling, rhoB; experiment: Integrin/CD44 signaling and microtubule stabilization in vivo
# [14] = test system: invasion complex; experiment: Invasion complex binding, in vitro studies
# Text: SEQ ID NO: 55 ([…] is a peptide derived and modified from a parent peptide isolated using minicell display. The design objective for the parent peptide was to generate a mini protein with the mechanistic advantages of taxol, but devoid of the toxicity and side effects of taxol-type drugs.
# [15] = test system: β integrin; experiment: β integrin binding
# Text: as §1, §2
# [16] = test system: cell-cell; experiment: Cell-cell adhesion; format: cell-based
# Text: as §1, §2
# [17] = Tolerability of the peptide in animals; format: in vivo
# Procedure: To evaluate that effectiveness of SEQ ID NO: 54 against primary tumor growth and metastasis, 1×10^7 cells were injected subcutaneously into the left flank of nude mice. After six weeks the resulting tumors were aseptically dissected out, minced and 1 mm-tumor pieces were transplanted into the right flank of nude mice using a trocar needle. Two weeks later, when tumors were measured approximately 10 mm, mice were assigned to different experimental groups. One group of 24 animals bearing MDA-MB-231 xenografts were divided into 3 groups that received the following treatments one group of 8 animals received a weekly injection of apoptotic peptide (0.3-100 μg/kg for SEQ ID NO: 54) through the peritoneal cavity. […] Tumors were measured once every two days with microcalipers, and tumor volume was calculated as length×width×height×0.5236. Body weights were measured on the day of the injection, 4 days later and weekly thereafter. […] Total leukocyte and platelet counts were determined manually using a hemocytometer. […] Treatment-related toxicity was evaluated based on the differences in body weight, liver and kidney marker enzymes and the hematological parameters between treatment groups. […] Liver, heart, uterus, ovaries, lungs spinal cord and all long bones were evaluated histologically. […]
# [18] = test system: macrophage; experiment: Macrophage recruitment by osteopontin, C5a, fibronectin (activity assay of minicell display peptides); format: cell-based
# Text: as §1, §2
# [19] = test system: neutrophils, endothelium, fibrosarcomas melanoma; experiment: Neutrophils, endothelium, fibrosarcomas, melanoma attachment; format: cell-based
# Text: as §1, §2
# [20] = test system: tumor cells; experiment: Apoptosis of tumor cells; format: cell-based
# Text: as §1, §2
# Sequence of CD44 (P16070 21-742, species assumed): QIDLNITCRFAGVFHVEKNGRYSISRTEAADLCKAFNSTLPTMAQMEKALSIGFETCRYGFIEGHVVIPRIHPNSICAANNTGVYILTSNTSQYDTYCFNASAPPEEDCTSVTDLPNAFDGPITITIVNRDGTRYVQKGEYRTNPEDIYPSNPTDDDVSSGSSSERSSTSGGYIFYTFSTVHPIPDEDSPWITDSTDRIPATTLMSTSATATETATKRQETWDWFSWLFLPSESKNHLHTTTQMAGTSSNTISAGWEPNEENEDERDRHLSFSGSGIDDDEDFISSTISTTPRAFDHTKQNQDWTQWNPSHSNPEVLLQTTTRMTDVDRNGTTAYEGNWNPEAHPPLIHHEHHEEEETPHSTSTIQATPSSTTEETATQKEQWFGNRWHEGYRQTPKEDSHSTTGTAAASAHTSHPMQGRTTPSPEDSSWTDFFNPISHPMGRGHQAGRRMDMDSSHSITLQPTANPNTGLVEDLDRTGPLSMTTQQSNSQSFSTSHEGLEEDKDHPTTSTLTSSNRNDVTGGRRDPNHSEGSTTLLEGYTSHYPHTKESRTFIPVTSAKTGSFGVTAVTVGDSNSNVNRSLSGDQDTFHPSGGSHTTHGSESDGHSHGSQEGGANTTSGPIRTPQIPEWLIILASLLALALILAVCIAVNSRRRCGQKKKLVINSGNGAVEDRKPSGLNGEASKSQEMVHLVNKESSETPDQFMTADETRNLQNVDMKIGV
substance,measurement,setting,value
DQDQRWGYC [SEQ ID NO:9],FUNCTIONAL ACTIVITY: cell/collagen interaction,[1],Inhibits cell/collagen
CVVVLVL [SEQ ID NO: 19],FUNCTIONAL ACTIVITY: cell entry of peptides,[2],Promotes cell entry of peptides
WTGGDDSGSPSSPS [SEQ ID NO:23],FUNCTIONAL ACTIVITY: alpha4 integrin binding,[3],Inhibits alpha4 integrin
PNGRGESLAY [SEQ ID NO:37],FUNCTIONAL ACTIVITY: fibroblast attachment,[4],"Inhibits fibroblast attachment,"
same,FUNCTIONAL ACTIVITY: collagenase induction,[5],inhibits collagenase induction
LVPSSKGRGDYLAQSQP [SEQ ID NO:36],FUNCTIONAL ACTIVITY: collagenase induction,[5],collagenase induction
LDSPPAALS [SEQ ID NO:21],FUNCTIONAL ACTIVITY: alpha4 integrin binding,[3],Inhibits alpha4 integrin
DRQWGLC [SEQ ID NO:11],FUNCTIONAL ACTIVITY: cell/collagen interaction,[1],Inhibits cell/collagen
DPGYIGSR [SEQ ID NO:41],FUNCTIONAL ACTIVITY: endothelial cell attachment,[6],Inhibits endothelial cell
DRYLKFRPV [SEQ ID NO:38],FUNCTIONAL ACTIVITY: melanoma cell attachment,[7],Inhibits melanoma cell
LDSAS [SEQ ID NO:20],FUNCTIONAL ACTIVITY: alpha4 integrin binding,[3],Inhibits alpha4 integrin
ESHQKYGYCGGCDRNNP [SEQ ID NO:13],FUNCTIONAL ACTIVITY: cell/collagen interaction,[1],Inhibits cell/collagen
SDV [SEQ ID NO:24],FUNCTIONAL ACTIVITY: alpha4 integrin binding,[3],Inhibits alpha4 integrin
DRDRAWGYC [SEQ ID NO:10],FUNCTIONAL ACTIVITY: cell/collagen interaction,[1],Inhibits cell/collagen
fibronectin [reference compound],Change of the percentage of apoptotic cells (in words),[8],decreased the percentage of apoptotic cells
DSVVYGLRSK [SEQ ID NO:14],FUNCTIONAL ACTIVITY: heparin binding,[9],Inhibits heparin binding
DSVAYGLKSRSK [SEQ ID NO:16],FUNCTIONAL ACTIVITY: heparin binding,[9],Inhibits heparin binding
YYWRQQQKSDPVVSRRRSPS [SEQ ID NO:44],FUNCTIONAL ACTIVITY: CD44 interaction with GAG,[10],Inhibits CD44 interaction with
DSVAYGLKSK [SEQ ID NO:15],FUNCTIONAL ACTIVITY: heparin binding,[9],Inhibits heparin binding
HGRFILPWWYAFSPS [SEQ ID NO:48],FUNCTIONAL ACTIVITY: homotypic aggregation of tumor cells,[11],Inhibit homotypic aggregation
PYAGRGDSVVYGLKKKNNQKAEPLIGRKKTR [SEQ ID NO: 55],Apoptosis and cell death,[12],induces apoptosis and cell death
same,Integrin signaling versus CD44 signaling,[13],uncouple integrin signaling from CD44 signaling
same,Microtubules,[13]; by down stream activation of rhoB,stabilization of microtubules
same,Binding to the invasion complex,[14],binds to the invasion complex
KNNQKSEPLIGRKKT [SEQ ID NO:43],FUNCTIONAL ACTIVITY: CD44 interaction with GAG,[10],Inhibits CD44 interaction with
DADQKFGFC [SEQ ID NO:12],FUNCTIONAL ACTIVITY: cell/collagen interaction,[1],Inhibits cell/collagen
TPVVPTVDTYDGRGDSLAY [SEQ ID NO:27],FUNCTIONAL ACTIVITY: β integrin binding,[15],β integrin binding
GRGDNPS [SEQ ID NO:35],FUNCTIONAL ACTIVITY: collagenase induction,[5],collagenase induction
DDDRKWGFC [SEQ ID NO:8],FUNCTIONAL ACTIVITY: cell/collagen interaction,[1],Inhibits cell/collagen
RRSRSSTGKKQKSSQSRKTA [SEQ ID NO:51],FUNCTIONAL ACTIVITY: Anti-adhesion (cell-cell),[16],Anti-adhesion (cell-cell)
"Ac-DKMLDP [SEQ ID NO: 54, DKMLDP]",Therapeutic index,[17],high
same,Tolerability of relatively high doses,[17]; more than ten fold the optimum effective dose,no deleterious effects
AADVESPS [SEQ ID NO:22],FUNCTIONAL ACTIVITY: alpha4 integrin binding,[3],Inhibits alpha4 integrin
HKFVHWKKPVLPSQNNQ [SEQ ID NO:39],FUNCTIONAL ACTIVITY: melanoma cell attachment,[7],Inhibits melanoma cell
Acetylated-GRGENPS (Ac-GRGENPS) [SEQ ID NO: 56],Increase of the percentage of apoptotic cells,[8],roughly 20%
KKGKKSKRS [SEQ ID NO:50],FUNCTIONAL ACTIVITY: Anti-adhesion (cell-cell),[16],Anti-adhesion (cell-cell)
KKAKKSRRS [SEQ ID NO:49],FUNCTIONAL ACTIVITY: Anti-adhesion (cell-cell),[16],Anti-adhesion (cell-cell)
VLEP [SEQ ID NO:7],"FUNCTIONAL ACTIVITY: macrophage recruitment by osteopontin, C5a, fibronectin",[18],Inhibitor of macrophage
QESPSGTDLLVAGSSP [SEQ ID NO:26],FUNCTIONAL ACTIVITY: alpha4 integrin binding,[3],Inhibits alpha4 integrin
KGMNYTVR [SEQ ID NO:40],"FUNCTIONAL ACTIVITY: neutrophils, endothelium, fibrosarcomas melanoma attachment",[19],"Inhibits, neutrophils,"
VLPTPTPPGYLSSRSSR [SEQ ID NO:42],FUNCTIONAL ACTIVITY: endothelial cell attachment,[6],Inhibits endothelial cell
EPEESDVGGAADYP [SEQ ID NO:25],FUNCTIONAL ACTIVITY: alpha4 integrin binding,[3],Inhibits alpha4 integrin
DGGRGDSLGWYRRGRGGARRSKAKKAAAKNNQKSEPLIGRKKT [SEQ ID NO:52],FUNCTIONAL ACTIVITY: Apoptotic to tumor cells,[20],Apoptotic to tumor cells
KRSR [SEQ ID NO:53],FUNCTIONAL ACTIVITY: Apoptotic to tumor cells,[20],Apoptotic to tumor cells
